# Experimental data from US4889634A, “Dialysate solution containing hydroxypropyl-beta-cyclodextrin and method of using same” (priority 1988, dated 1989).
# Assays:
# [1] = tested on: rats [Crl:CD(SD) BR strain]; assay: 14-day intravenous toxicity study in rats; format: in vivo, rat
# Description: (§1) As part of the toxicological evaluation of HPBCD, control groups of animals were dosed with HPBCD alone.
# Two groups (5/sex/group) of rats [Crl:CD(SD) BR strain] were used for this study. Control rats were given 200 mg of salt per kilogram of body weight intravenously administered in a saline control solution comprising 20% salt by weight in water. The saline control was administered every second day for 14 days (i.e. seven injections). The treated rats were given 200 mg of HPBCD per kilogram of body weight intravenously administered (200 mg/kg i.v. HPBCD) via a HPBCD solution containing 20% HPBCD by weight in water on the same injection schedule. […] At the end of the study the animals were necropsied, gross pathology was observed, histopathological samples were prepared and blood was drawn for clinical laboratory measurements.
# Cynomolgus monkeys = conditions: cynomolgus monkey, in vivo
# Description: as §1
# Two groups (1/sex/group) of Cynomolgus monkeys were used for this study. Control monkeys were given 200 mg of salt per kilogram of body weight intravenously administered as a saline control solution of 20% by weight in water. The saline control was administered every second day for 14 days (i.e. 7 doses). The treated monkeys were given 200 mg/kg i.v. HPBCD on the same injection schedule. […] At the end of the study the animals were necropsied, gross pathology was observed, histopathology samples were prepared and blood was drawn for clinical laboratory measurements.
# [2] = male rats, 200 mg/kg i.v., 14 days
substance,measurement,setting,value
hydroxypropyl-beta-cyclodextrin [HPBCD],Calcium,[1]; [2],9.8 ± 0.31 mg/dL
same,Chlorine,[1]; [2],106.0 ± 1.80 mmol/L
same,Cholesterol,[1]; [2],33.0 ± 7.10 mg/dL
same,Creatinine,[1]; [2],0.8 ± 0.04 mg/dL
same,Eosinophils,[1]; [2],0.07 ± 0.05 × 10^3 /mm^3
same,Globulin,[1]; [2],3.3 ± 0.20 G/dL
same,Glucose (blood),[1]; [2],94.1 ± 7.43 mg/dL
same,Hematocrit,[1]; [2],48.6 ± 1.74%
same,Hemoglobin,[1]; [2],14.6 ± 0.51 G/DL
same,Ionic phosphate,[1]; [2],9.7 ± 0.34 mg/dL
same,Lymphocytes,[1]; [2],7.13 ± 1.08 × 10^3 /mm^3
same,Mean corpuscle,[1]; [2],64.0 ± 2.20 fL
same,Mean corpuscle hemoglobin,[1]; [2],19.3 ± 0.60 pg
same,Mean corpuscle hemoglobin concentrative,[1]; [2],30.0 ± 0.35%
same,Monocytes,[1]; [2],0.08 ± 0.01 × 10^3 /mm^3
same,Normal blood cells,[1]; [2],0 ± 0.0 /100 white blood cells
same,Platelet count,[1]; [2],1020.0 ± 79.5 × 10^3 /mm^3
same,Potassium,[1]; [2],4.7 ± 0.15 mmol/L
same,Red blood cell,[1]; [2],7.55 ± 0.17 × 10^6 /mm^3
same,Segmented neutrophils,[1]; [2],0.61 ± 0.44 × 10^3 /mm^3
same,Sodium,[1]; [2],142 ± 1.5 mM
same,Total bilirubin,[1]; [2],0.2 ± 0.04 mg/dL
same,Total proteins,[1]; [2],6.3 ± 0.18 G/dL
same,Triglycerides,[1]; [2],57.0 ± 17.10 mg/dL
same,White blood cells,[1]; [2],7.9 ± 1.18 × 10^3 /mm^3
same,Number of deaths,"[1]; male, 200 mg/kg i.v. every second day, 14 days",0/5
same,Kidney weight to total body weight ratio,[1]; males,0.9022 Weight Percent of Total Body W
same,Adrenals weight to total body weight ratio,"[1]; rat, in vivo",0.0212 Weight Percent of Total Body W
same,Clinical laboratory values vs controls,"[1]; rat, in vivo",no observed clinically significant differences
same,Epididymes weight to total body weight ratio,"[1]; rat, in vivo",0.2635 Weight Percent of Total Body W
same,Organ to body ratios between groups,"[1]; rat, in vivo",not different between the groups
same,Ovaries weight to total body weight ratio,"[1]; rat, in vivo",0.0574 Weight Percent of Total Body W
same,Prostate weight to total body weight ratio,"[1]; rat, in vivo",0.2091 Weight Percent of Total Body W
same,Testes weight to total body weight ratio,"[1]; rat, in vivo",1.0209 Weight Percent of Total Body W
same,Uterus weight to total body weight ratio,"[1]; rat, in vivo",0.3278 Weight Percent of Total Body W
same,Alanine amino transferase,"[1]; rat, in vivo, iv, 200 mg/kg",21.0 ± 2.30 IU/L
same,Albumin,"[1]; rat, in vivo, iv, 200 mg/kg",3.1 ± 0.08 G/dL
same,Alkaline phosphatase,"[1]; rat, in vivo, iv, 200 mg/kg",109.0 ± 16.20 IU/L
same,Aspartate amino transferase,"[1]; rat, in vivo, iv, 200 mg/kg",102.0 ± 162.00 IU/L
same,Basophils,"[1]; rat, in vivo, iv, 200 mg/kg",0.00 ± 0.00 × 10^3 /mm^3
same,Blood urea nitrogen,"[1]; rat, in vivo, iv, 200 mg/kg",13.2 ± 2.52 mg/dL
same,Calcium,"[1]; rat, in vivo, iv, 200 mg/kg",10.1 ± 0.82 mg/dL
same,Chlorine,"[1]; rat, in vivo, iv, 200 mg/kg",107.0 ± 2.60
same,Cholesterol,"[1]; rat, in vivo, iv, 200 mg/kg",52.0 ± 18.60 mg/dL
same,Creatinine,"[1]; rat, in vivo, iv, 200 mg/kg",0.8 ± 0.11 mg/dL
same,Eosinophils,"[1]; rat, in vivo, iv, 200 mg/kg",0.06 ± 0.04 × 10^3 /mm^3
same,Globulin,"[1]; rat, in vivo, iv, 200 mg/kg",3.4 ± 0.26 G/dL
same,Glucose (blood),"[1]; rat, in vivo, iv, 200 mg/kg",100.0 ± 14.07 mg/dL
same,Hematocrit,"[1]; rat, in vivo, iv, 200 mg/kg",47.2 ± 5.59%
same,Hemoglobin,"[1]; rat, in vivo, iv, 200 mg/kg",13.6 ± 3.06 G/DL
same,Ionic phosphate,"[1]; rat, in vivo, iv, 200 mg/kg",8.3 ± 0.82 mg/dL
same,Lymphocytes,"[1]; rat, in vivo, iv, 200 mg/kg",6.80 ± 2.42 × 10^3 /mm^3
same,Mean corpuscle,"[1]; rat, in vivo, iv, 200 mg/kg",65.0 ± 2.70 fL
same,Mean corpuscle hemoglobin,"[1]; rat, in vivo, iv, 200 mg/kg",18.4 ± 2.41 pg
same,Monocytes,"[1]; rat, in vivo, iv, 200 mg/kg",0.05 ± 0.08 ×10^3 /mm^3
same,Normal blood cells,"[1]; rat, in vivo, iv, 200 mg/kg",0.0 ± 0.00 /100 white blood cells
same,Platelet count,"[1]; rat, in vivo, iv, 200 mg/kg",924 ± 395.20 × 10^3 /mm^3
same,Potassium,"[1]; rat, in vivo, iv, 200 mg/kg",4.5 ± 0.16 mmol/L
same,Red blood cell,"[1]; rat, in vivo, iv, 200 mg/kg",7.32 ± 1.00 × 10^6 /mm^3
same,Segmented neutrophils,"[1]; rat, in vivo, iv, 200 mg/kg",0.49 ± 0.22 × 10^3 /mm^3
same,Sodium,"[1]; rat, in vivo, iv, 200 mg/kg",141.0 ± 1.10 mM
same,Total bilirubin,"[1]; rat, in vivo, iv, 200 mg/kg",0.3 ± 0.05 mg/dL
same,Total proteins,"[1]; rat, in vivo, iv, 200 mg/kg",6.5 ± 0.38 G/dL
same,Changes in behavior,Cynomolgus monkeys,No changes in behavior were observed
same,Changes in daily food consumption,Cynomolgus monkeys,No weight changes were observed (TABLE XIII) or changes in daily food consumption
same,Gross pathological changes and histopathological findings,Cynomolgus monkeys,No gross pathological changes and no histopathological findings were observed
same,Hematology and clinical chemistry values,Cynomolgus monkeys,No differences were seen
same,Weight changes,Cynomolgus monkeys,No weight changes were observed
same,Basophils,Cynomolgus monkeys; 200 mg/kg,0.00 × 10^3 /mm^3
same,Immature neutrophils,Cynomolgus monkeys; 200 mg/kg,0.00 × 10^3 mm^3
same,Normal blood cells,Cynomolgus monkeys; 200 mg/kg,0.00 /100 white blood cells
